According to ChEMBL document CHEMBL2321748, “Structure-Based Approach for the Discovery of Pyrrolo[3,2-d]pyrimidine-Based EGFR T790M/L858R Mutant Inhibitors” (ACS Med Chem Lett, 2013):
The source made the active and inactive calls. The calls are words filed in the database; no cut-off is given here.

Key:
[1] = biological target: Epidermal growth factor receptor (Homo sapiens, UniProt P00533); test: Inhibition of human wild type EGFR expressed in Sf9 cells using [gamma32P]-ATP after 10 mins by scintillation counting
Epidermal growth factor receptor, sequence (P00533 whole entry): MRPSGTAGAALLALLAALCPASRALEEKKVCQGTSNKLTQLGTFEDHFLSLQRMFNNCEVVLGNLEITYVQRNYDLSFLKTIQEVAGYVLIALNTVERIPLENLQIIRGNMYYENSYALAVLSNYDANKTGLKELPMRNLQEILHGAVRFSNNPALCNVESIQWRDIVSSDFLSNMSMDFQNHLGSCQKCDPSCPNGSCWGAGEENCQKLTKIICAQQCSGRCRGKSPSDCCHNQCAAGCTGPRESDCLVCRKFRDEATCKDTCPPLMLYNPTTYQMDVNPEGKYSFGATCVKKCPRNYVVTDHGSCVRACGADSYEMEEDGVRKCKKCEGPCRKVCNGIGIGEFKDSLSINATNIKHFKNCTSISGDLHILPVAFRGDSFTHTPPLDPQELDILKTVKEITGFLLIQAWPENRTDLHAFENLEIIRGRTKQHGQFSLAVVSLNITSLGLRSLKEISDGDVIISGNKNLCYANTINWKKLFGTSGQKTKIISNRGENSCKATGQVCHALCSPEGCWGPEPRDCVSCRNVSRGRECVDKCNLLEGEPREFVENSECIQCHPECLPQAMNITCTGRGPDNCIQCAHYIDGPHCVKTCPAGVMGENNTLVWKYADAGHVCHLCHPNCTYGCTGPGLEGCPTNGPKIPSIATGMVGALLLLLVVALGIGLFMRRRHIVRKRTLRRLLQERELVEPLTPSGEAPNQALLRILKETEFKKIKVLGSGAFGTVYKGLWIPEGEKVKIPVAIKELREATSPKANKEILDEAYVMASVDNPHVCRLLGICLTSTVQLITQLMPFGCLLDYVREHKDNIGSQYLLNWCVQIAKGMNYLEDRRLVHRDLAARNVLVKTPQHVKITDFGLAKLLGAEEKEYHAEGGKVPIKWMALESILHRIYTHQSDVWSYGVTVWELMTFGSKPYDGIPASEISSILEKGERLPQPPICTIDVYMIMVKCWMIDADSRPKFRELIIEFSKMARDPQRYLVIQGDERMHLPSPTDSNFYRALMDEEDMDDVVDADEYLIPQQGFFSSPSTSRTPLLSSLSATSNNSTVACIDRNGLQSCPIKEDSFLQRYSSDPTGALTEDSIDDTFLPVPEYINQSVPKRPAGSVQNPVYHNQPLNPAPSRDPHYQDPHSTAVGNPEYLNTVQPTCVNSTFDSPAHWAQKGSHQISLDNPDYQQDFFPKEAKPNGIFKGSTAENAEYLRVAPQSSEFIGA

[2] = system: Epidermal growth factor receptor (Homo sapiens), P00533 [L858R,T790M]; test: Time dependent inhibition of human EGFR T790M/L858R mutant expressed in Sf9 cells using [gamma32P]-ATP up to 1 hr by scintillation counting
Epidermal growth factor receptor (Homo sapiens), P00533 [L858R,T790M], sequence (P00533 whole entry T790M/L858R, looked up): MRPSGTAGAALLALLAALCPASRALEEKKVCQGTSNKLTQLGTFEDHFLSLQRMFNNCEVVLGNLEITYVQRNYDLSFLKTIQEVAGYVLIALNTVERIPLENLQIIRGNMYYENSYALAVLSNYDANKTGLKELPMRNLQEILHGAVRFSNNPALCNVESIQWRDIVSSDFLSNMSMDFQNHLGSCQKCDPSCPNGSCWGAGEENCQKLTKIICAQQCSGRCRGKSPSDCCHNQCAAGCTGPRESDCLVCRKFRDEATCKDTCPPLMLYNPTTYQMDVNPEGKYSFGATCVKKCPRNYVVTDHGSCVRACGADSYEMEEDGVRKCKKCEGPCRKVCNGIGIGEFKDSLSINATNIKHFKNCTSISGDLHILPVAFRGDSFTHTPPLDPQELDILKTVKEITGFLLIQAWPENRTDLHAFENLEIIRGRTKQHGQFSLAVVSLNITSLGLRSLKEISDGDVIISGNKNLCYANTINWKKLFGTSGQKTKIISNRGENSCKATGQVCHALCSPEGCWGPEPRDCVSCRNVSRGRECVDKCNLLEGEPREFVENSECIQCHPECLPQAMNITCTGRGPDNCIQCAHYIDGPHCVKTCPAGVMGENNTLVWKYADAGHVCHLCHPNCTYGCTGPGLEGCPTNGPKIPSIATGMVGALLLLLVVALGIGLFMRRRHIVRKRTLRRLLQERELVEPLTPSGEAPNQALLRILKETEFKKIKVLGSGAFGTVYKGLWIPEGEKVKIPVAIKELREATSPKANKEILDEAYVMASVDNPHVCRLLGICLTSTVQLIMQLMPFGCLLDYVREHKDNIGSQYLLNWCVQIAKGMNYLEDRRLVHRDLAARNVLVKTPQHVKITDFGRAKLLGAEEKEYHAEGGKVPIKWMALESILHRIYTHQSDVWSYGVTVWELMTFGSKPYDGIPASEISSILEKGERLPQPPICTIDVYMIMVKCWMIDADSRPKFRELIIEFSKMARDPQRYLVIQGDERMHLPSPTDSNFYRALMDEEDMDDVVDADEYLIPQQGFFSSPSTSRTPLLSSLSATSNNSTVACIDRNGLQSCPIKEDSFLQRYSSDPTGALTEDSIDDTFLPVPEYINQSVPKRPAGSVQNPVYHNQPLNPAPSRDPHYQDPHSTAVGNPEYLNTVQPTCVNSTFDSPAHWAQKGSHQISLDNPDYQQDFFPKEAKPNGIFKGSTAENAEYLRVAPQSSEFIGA

Structure (SMILES)	IC50 [1] [nM]	inhibition [2]
O=C(Nc1cccc(Oc2ccc(Nc3ncnc4ccn(CCOCCO)c34)cc2Cl)c1)NC1CCCCC1	6.9	–
CN(C)C/C=C/C(=O)NCCn1ccc2ncnc(Nc3ccc(Oc4cccc(C(F)(F)F)c4)c(Cl)c3)c21	4.6	inactive
